Experimental data reported in patent US6669951B2, “Compositions and methods for enhancing drug delivery across and into epithelial tissues” (CellGate, Inc., priority 1999, dated 2003).
Like-named read-outs stand apart in the source and are kept apart here. Values belong to the compound of their own block, whether it stands above or below them.

Assays:
[1] = Blood levels after buccal delivery; type: in vivo, rat; conditions: 5 mg/kg in Cremophor EL:ethanol 1:1
Description: (§1) Clotting was inhibited by transferring the blood to glass tubes containing 100λ of 0.5% EDTA, and the blood was frozen.

[2] = Half-life / release of conjugate in buffer; type: physicochemical; conditions: for half-life: buffer
[3] = Drug blood levels after intracolonic injection (LC MS MS); type: in vivo, Wistar rats; conditions: intracolonic in PBS
Experimental: Wistar rats, females of approximately 200-300 g (Simonsen, Gilroy, Calif.), were anesthetized, their abdomens were shaved, midline incisions were made, and a one-half inch section of the ascending colon in each animal was tied off with sutures. Taxol and cyclosporin (5 mg/kg) were injected as solutions in a 1:1 v/v Cremophor EL:ethanol mixture, whereas equivalent molar amounts of the r7 conjugates were injected in PBS. In all cases, the volume injected was approximately 500λ. The colon was placed back into the cavity, and the incision was closed using sutures.
as §1
Either taxol or cyclosporin was extracted from the whole blood using a modification of literature procedures. Briefly, whole blood (100λ) was transferred to a screw capped glass tube containing five mls of diethyl ether. The sample was vortexed vigorously for two minutes, centrifuged, and frozen in dry ice/methanol. The ethereal layer was transferred to another glass tube and the ether was evaporated. […] Samples were placed into a Perkin-Elmer series 200 autosampler and sequencially injected onto a C18 reverse column at 70° C. connected to a Shimadzu HPLC system, eluted with 70% methanol, 30% aqueous ammonium formate buffer, and the effluent was analyzed on a PE Sciex API 3000 tandem mass spectrometer.

[4] = test system: epithelia of the gastrointestinal tract; assay: Gastrointestinal absorption protocol (histology); type: in vivo, mouse
Experimental: Experiments were performed on 8- to 10-week-old female Swiss Webster mice purchased from Taconic (Germantown, N.Y.). Mice were anesthetized with Nembutal and a midline incision was made along the abdomen. Intestines were measured, tied off at both ends of the desired section with sutures, and biotinylated peptides were injected into the lumen (approximately 100λ/inch). After a fifteen minute incubation, the tissue was removed and the lumen was gently washed with PBS.
Immediately following incubation with biotinylated peptides, the anesthetized rodents were sacrificed by cervical dislocation and the tied off sections of the GI tract were removed. The lumens of the various sections were filled with OCT using a plastic tipped syringe, immersed in OCT filled boats, and snap frozen in a 2-methyl-butane/dry ice solution. Frozen sections were allowed to warm slightly and 2 mm thick sagital cuts were made using a steel razor blade. The cuts were placed into OCT molds and snap frozen in a 2-methyl-butane/dry ice solution. Sections (5 μm) were cut on the cryostat, fixed in acetone at 4° C. for 10 minute, and allowed to air dry. After rehydration in PBS for 5 minutes, sections were blocked with normal horse serum, washed, incubated with streptavidin-FITC (20 μg/ml) for 30 minutes, washed, and mounted with mounting medium containing propidium iodide (PI).
After fifteen minutes of exposure, the relevant section of tissue was dissected, frozen, sectioned, and stained with Streptavidin fluorescein to define the location of the biotinylated peptide, and propidium iodide to counterstain all the nuclei in the section.

[5] = test system: squamous epithelia of the oral cavity; assay: Penetration into squamous epithelia of the oral cavity; type: in vivo, mouse; conditions: fifteen minutes
Description: To determine whether CellGate transporters could enter the squamous epithelia of the oral cavity, mice were anesthetized with Nembutal, their heads tipped to one side and solutions of the biotinylated peptides were placed in their mouths. After fifteen minutes the liquid was removed by pipette.
The capacity of the transporters to enter the squamous epithelial layers of the oral cavity was examined. A mouse was anesthetized, its head was tipped so that a solution of biotinylated r9 could be administered. The animal was kept in this position for fifteen minutes, at which time it was sacrificed, and the tongue and cheek were dissected, frozen, sectioned, stained with streptavidin-fluorescein, and counterstained with propidium iodide.

[6] = test system: IL-2 secretion by Jurkat cells; assay: Inhibition of IL-2 secretion, PMA/ionomycin stimulated; type: cell-based, human
Experimental: T cells subsequently were stimulated to produce IL-2 by addition of 10 ng/ml PMA (Sigma, St. Louis, Mo.) and 1 μM ionomycin (CalBiochem, San Diego, Calif.). Cultures were incubated overnight at 37° C. and supernatants were collected and IL-2 was measured using a fluorescent ELISA. Briefly, plates were coated with 4 μg/ml anti-human IL-2 antibody (BD Pharmingen, San Diego, Calif.), blocked with PBS containing 10% FBS for 1 hour at room temperature, washed, and supernatants added and incubated for 1 hour. Media was removed and biotinylated anti-human IL-2 (1.6 μg/ml), was added for one hour. The plates were washed, and then europium labeled streptavidin (0.04 ng/ml) was added for one hour. After another wash, enhancement solution was added and the resulting fluorescence was measured using a Wallac plate reader (Wallac, Turku, Finland).
See R. Wiskocil, et al., J Immunol 134, 1599-603 (1985).

[7] = test system: ear inflammation in Balb/c mice; assay: Murine contact dermatitis (DNFB), ear inflammation; type: in vivo, mouse
Experimental: Balb/c (6-7 weeks) mice were painted on the abdomen with 100 μl of 0.7% DNFB in acetone olive oil (95:5). Three days later both ears of the animals were restimulated with 0.5% DNFB in acetone. […] Ear inflammation was measured 24 hours after restimulation using a spring loaded caliper. The percent reduction of inflammation was calculated using the following formula […], where t=thickness of the treated ear, n=the thickness of a normal untreated ear, and u=thickness of an inflamed ear without any treatment. N=20 animals in each group.

[8] = cited from earlier work
skin of nude mice = assay: Penetration of Cu-DTPA complexes into skin of nude mice; type: in vivo, mouse; conditions: 1 μM to 1 mM, abdominal region, 15, 30, 45 minutes
Description: As controls, an equimolar amount of the Cu-DTPA complex was spotted onto the abdominal region.

[9] = test system: human skin grafts on SCID mice; conditions: in vivo
Experimental: Samples (100 μl) were applied as a liquid within excipient and prevented from dispersing by a Vaseline™ barrier and allowed to penetrate for fifteen minutes. At the end of this period animal was sacrificed, the relevant section of skin was excised, embedded in mounting medium (OCT) and frozen. […] Slides were analyzed by fluorescent microscopy.

[10] = test system: CD3+ T cells in inflamed skin; conditions: mouse, in vivo

Compound: CC(=O)O[C@H]1C(=O)[C@@]2(C)[C@H]([C@H](OC(=O)c3ccccc3)[C@]3(O)C[C@H](OC(=O)[C@H](O)[C@@H](NC(=O)c4ccccc4)c4ccccc4)C(C)=C1C3(C)C)[C@]1(OC(C)=O)CO[C@@H]1C[C@@H]2O [taxol, paclitaxel]
appearance of taxol in blood after buccal administration [1]: appeared in the blood stream by the first time point

Compound: CC(=O)N[C@@H](CSCC(=O)O[C@@H](C(=O)O[C@H]1C[C@@]2(O)[C@@H](OC(=O)c3ccccc3)[C@@H]3[C@]4(OC(C)=O)CO[C@@H]4C[C@H](O)[C@@]3(C)C(=O)[C@H](OC(C)=O)C(=C1C)C2(C)C)[C@@H](NC(=O)c1ccccc1)c1ccccc1)C(=O)N[C@H](CCCNC(=N)N)C(=O)N[C@H](CCCNC(=N)N)C(=O)N[C@H](CCCNC(=N)N)C(=O)N[C@H](CCCNC(=N)N)C(=O)N[C@H](CCCNC(=N)N)C(=O)N[C@H](CCCNC(=N)N)C(=O)N[C@H](CCCNC(=N)N)C(N)=O [compound 14]
half-life ([2]; PBS, pH 7.4 at 37° C., read-out: half life (converted)): 5 h | blood levels of taxol [3]: did not result in significant blood levels of taxol within five hours

Compound: N=C(N)NCCC[C@@H](NC(=O)[C@@H](CCCNC(=N)N)NC(=O)[C@@H](CCCNC(=N)N)NC(=O)[C@@H](CCCNC(=N)N)NC(=O)[C@@H](CCCNC(=N)N)NC(=O)[C@@H](CCCNC(=N)N)NC(=O)[C@@H](CCCNC(=N)N)NC(=O)[C@@H](CCCNC(=N)N)NC(=O)[C@@H](CCCNC(=N)N)NC(=O)CCCCCNC(=O)CCCC[C@@H]1SC[C@@H]2NC(=O)N[C@@H]21)C(N)=O [bio aca r9 CONH2]
staining of duodenum ([4]; 100 μM injected into lumen, fifteen minutes): no detectable staining over background was observed | staining of ascending and transverse colon ([4]; 100 μM, fifteen minutes): stained all surface areas of the villi, and penetrated several cell layers | staining of ileum ([4]; 100 μM, fifteen minutes): first sign of uniform staining | staining of jejunum ([4]; 100 μM, fifteen minutes): Poor staining | uptake along the GI tract ([4]; mouse, in vivo): uptake increasing with distance from the gastric pylorus | penetration into cheek and tongue [5]: quickly and efficiently penetrated multiple layers of the epithelia

EC50 relative to CsA dissolved in alcohol ([6]; added at the same time): approximately two
Compound: C/C=C/C[C@@H](C)[C@@H](OC(=O)CN(Cc1ccccc1)C(=O)CNCC(=O)N[C@@H](CCCNC(=N)N)C(=O)N[C@@H](CCCNC(=N)N)C(=O)N[C@@H](CCCNC(=N)N)C(=O)N[C@@H](CCCNC(=N)N)C(=O)N[C@@H](CCCNC(=N)N)C(=O)N[C@@H](CCCNC(=N)N)C(=O)N[C@@H](CCCNC(=N)N)C(N)=O)[C@H]1C(=O)N[C@@H](CC)C(=O)N(C)CC(=O)N(C)[C@@H](CC(C)C)C(=O)N[C@@H](C(C)C)C(=O)N(C)[C@@H](CC(C)C)C(=O)N[C@@H](C)C(=O)N[C@H](C)C(=O)N(C)[C@@H](CC(C)C)C(=O)N(C)[C@@H](CC(C)C)C(=O)N(C)[C@@H](C(C)C)C(=O)N1C [releasable R7 CsA]
inhibition of IL-2 secretion ([6]; added 12 hours prior to PMA/ionomycin): dose dependent inhibition was observed | reduction in ear inflammation ([7]; 0.01% topical): 40.9%±3.3 | reduction in ear inflammation ([7]; 0.1% topical): 64.8%±4.0 | reduction in inflammation in the untreated ear ([7]; 1%): No reduction in inflammation was seen in the untreated ear | reduction in ear inflammation ([7]; 1% topical, 1, 5 and 20 h after restimulation, measured 24 hours): 73.9%±4.0 | pH dependent stability ([2]; absence of serum): stable at acidic pH, but labile at physiological pH in the absence of serum | half-life ([2]; PBS pH 7.4 (37° C. where stated), read-out: half-life): 1.5 h

Compound: CC(=O)O[C@@]12CO[C@@H]1C[C@H](O)[C@@]1(C)C(=O)[C@H](O)C3=C(C)[C@@H](OC(=O)[C@H](O)[C@@H](NC(=O)OC(C)(C)C)c4ccccc4)C[C@@](O)([C@@H](OC(=O)c4ccccc4)[C@H]21)C3(C)C [taxotere]
water solubility [8]: 6 to 7 µg/mL

colour on skin after wiping off (skin of nude mice): not where the Cu-DTPA alone was spotted
Compound: Copper-diethylenetriaminepentaacetic Acid Complex [Cu-DTPA]

Compound: C/C=C/C[C@@H](C)[C@@H](OC(=O)CSC[C@H](NC(=O)[C@@H](CCCNC(=N)N)NC(=O)[C@@H](CCCNC(=N)N)NC(=O)[C@@H](CCCNC(=N)N)NC(=O)[C@@H](CCCNC(=N)N)NC(=O)[C@@H](CCCNC(=N)N)NC(=O)[C@@H](CCCNC(=N)N)NC(=O)[C@@H](CCCNC(=N)N)NC(=O)CCCCCNC(=O)CCCC[C@@H]1SC[C@@H]2NC(=O)N[C@@H]21)C(N)=O)[C@H]1C(=O)N[C@@H](CC)C(=O)N(C)CC(=O)N(C)[C@@H](CC(C)C)C(=O)N[C@@H](C(C)C)C(=O)N(C)[C@@H](CC(C)C)C(=O)N[C@@H](C)C(=O)N[C@H](C)C(=O)N(C)[C@@H](CC(C)C)C(=O)N(C)[C@@H](CC(C)C)C(=O)N(C)[C@@H](C(C)C)C(=O)N1C [biotin r7 CsA, B-aca-r7-Cys-O-acyl-Cyclosporin A]
penetration into human skin [9]: penetrated human epidermis and dermis | presence in infiltrating T cells of inflamed skin [10]: found in all CD3[+] T cells in the tissue
